Data on two molecules can be found in paper PMC10945332, “Precision peptide theranostics: developing N- to C-terminus optimized theranostics targeting cholecystokinin-2 receptor” (Theranostics, 2024).

The test system of one data set is CCK2R. Also on record: method as in PMID 33826325. As to conditions: cited from earlier work.
In a further data set the target is T1, human CCK2R (Homo sapiens, UniProt P32239).
T1 construct: stably transfected to over-express the human full-length CCK2R (A431-CCK2R); expressed in transfected cells
T1 sequence (P32239 1-447): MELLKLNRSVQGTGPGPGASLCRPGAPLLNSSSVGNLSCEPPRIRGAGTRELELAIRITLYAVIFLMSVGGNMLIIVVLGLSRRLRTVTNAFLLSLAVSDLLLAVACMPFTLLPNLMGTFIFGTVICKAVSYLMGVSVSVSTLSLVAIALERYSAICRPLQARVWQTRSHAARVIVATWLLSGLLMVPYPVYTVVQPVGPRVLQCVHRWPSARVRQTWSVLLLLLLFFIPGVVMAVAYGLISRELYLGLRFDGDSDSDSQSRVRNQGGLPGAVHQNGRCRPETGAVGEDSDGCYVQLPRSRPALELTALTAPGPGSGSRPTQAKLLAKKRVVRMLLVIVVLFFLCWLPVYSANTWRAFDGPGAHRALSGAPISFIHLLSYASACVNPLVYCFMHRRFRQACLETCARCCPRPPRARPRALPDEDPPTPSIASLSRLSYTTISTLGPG
In words: Competitive binding against [177Lu]Lu-DOTA-CP04 in A431-CCK2R cells. As to conditions: linear peptide vs its Ga-DOTA form. The procedure: Materials and Methods: Biology […]
In Vitro CCK2R-Ligand Competitive Binding Assays
All CCK2R binding experiments were conducted using A431 (human epidermoid carcinoma) […]
cells stably transfected to over-express the human full-length CCK2R (A431-CCK2R) (gifted […]
by Dr. Elisabeth von Guggenberg, Medizinische Universität Innsbruck).[41] As a negative […]
control, A431 cells stably transfected with an empty vector were analysed simultaneously […]
(A431-EV). All A431 cells were maintained in DMEM (Gibco, Australia) media supplemented […]
with 10% foetal calf serum and 250 µg/mL G418 as described previously.[32]
The affinity of all peptides for the CCK2R was evaluated using competitive binding assays […]
Briefly, 48 hours before the experiment […]
cells were plated at a density of 300,000 cells per well in 12 well plates. On the day of the […]
experiment, linear peptides were diluted in DMEM supplemented with 1% foetal calf serum to […]
DOTA-CP04 was added to each dilution. Cells were washed twice in ice-cold binding buffer […]
(DMEM supplemented with 1% foetal calf serum) and resuspended in 1 mL of the pre-prepared […]
peptide mix before being incubated at room temperature for 1 hour. Post-incubation the media […]
was removed and kept for analysis (unbound fraction) and the cells were washed twice in ice- […]
cold PBS which was pooled with the unbound fraction. Finally, 1 M NaOH (150µL) was added […]
to the wells and allowed to incubate for 5 min before lysates were collected (bound fraction).
A small volume of lysate was kept aside to determine protein concentration using the Pierce® BCA protein assay kit (Thermo Fisher, Australia). All samples were analysed using the Perkin […]
normalised according to protein concentration. Half maximal inhibitory concentration (IC50) was determined using nonlinear regression calculated using Gr aphPad Prism Software (GraphPad Software, California, USA). […]

Data set [1] is classed as in vitro ADME, mouse. The procedure: Metabolic stability is an important determinant of the efficacy of peptide radiopharmaceuticals and their progression as promising theranostic candidates. In vitro, metabolic degradation through hepatic and renal enzymes can be assessed by utilizing liver and kidney tissue homogenates. Radiolabeled peptides [^68Ga]Ga-DOTA-GA4, and D-Ala substituted variants [^68Ga]Ga-DOTA-GA7, [^68Ga]Ga-DOTA-GA11-GA13 were incubated in liver and kidney mouse homogenates, in human serum at 37°C, and in HEPES buffer (pH 7.4) as a negative control. Following a time course experiment, the metabolites were analyzed using HPLC to quantify the % breakdown of the respective parent peptide. […]
To assess the stability of 68Ga radiolabeled peptides against enzymatic degradation, duplicate samples (750-900 pmol/mL, 2-5MBq) were incubated at 37 ℃ with pooled human serum, 15% […]
mouse kidney homogenate, 30% mouse liver homogenate or 20 mM HEPES, pH 7.3 (control).
Human blood was collected, and serum prepared using SSTII advance vacutainer tubes according to the manufacturer’s instructions (Becton Dickinson, New Jersey, USA). Mouse kidney and liver homogenates were prepared by washing the tissues in ice-cold HEPES buffer, pH 7.3 and placing them in pre-chilled tubes containing HEPES buffer and 2.38 mm metal beads (Mo-Bio Laboratories, Hilden, Germany). Tissues were homogenised using the PowerLyzer24 homogeniser (Qiagen, Hilden, Germany) according to the manufacturer’s instructions. 68Ga radiolabeled peptides were then incubated with the various lysates at 37 ℃ and samples were collected at 15, 30, 60 and 90 min. Reactions were terminated by addition of an equal volume of acetonitrile and centrifugation for 2 min at 15,000 rpm. Supernatants were diluted in water before being analysed by HPLC using a Kinetex C18 XB column (5µm

The format of data set [2] is physicochemical. On the procedure: Lipophilicity, expressed as the octanol-water partition coefficient, constitutes an important property in drug action, influencing both pharmacokinetic and pharmacodynamics processes. The distribution coefficient (LogD7.4) of [^68Ga]Ga-DOTA-peptides was determined by measuring radioactivity distribution in the aqueous phase (phosphate buffer pH7.4) and the organic phase (n-octanol). […]
To determine the distribution coefficient (logD 7.4), 68Ga radiolabeled peptides [68Ga]Ga-DOTA-GA4, [68Ga]Ga-DOTA-GA7, and [68Ga]Ga-DOTA-GA11–GA13 were diluted to approximately 20 pmol/mL in PBS (pH 7.4) and an equal volume of n-octanol was added. The mixture was vortexed vigorously for 10 cycles of 1 min at room temperature before being centrifuged for 6 min to separate the two phases. Equal volumes from each phase were aliquoted into individual counting tubes and analysed for 1 min using the Perkin Elmer 2480 Wizard2™ gamma counter (PerkinElmer, Massachusetts, USA). The distribution coefficient was calculated using the following equation LogD = […]. […]

In another data set the test system is AR42J xenografts. Particulars: mouse, in vivo, 1 h; cited from earlier work.
For data set [3] the following is noted: mouse, in vivo. The procedure: (§1) In order to assess these promising ligands as potential theranostics, the library of [^68Ga]Ga-DOTA-peptides was evaluated using static small animal PET imaging and quantifying biodistribution studies. This study was performed to investigate tumor uptake as well as the accumulation of radioligands in other organs. Mice bearing A431-CCK2R tumors were imaged at 1- and 2 hours post tracer injection, and tracer biodistribution was evaluated at the 1 hour and 2.5 hour time points to quantify tumor uptake and retention. […]
(§2) Small Animal PET Imaging and Biodistribution Studies
(§3) Female NSG mice (age 11-14 weeks) were sourced from Animal Resources Centre, (Canning Vale, Western Australia) and were inoculated subcutaneously on the right flank with 1-3 x 106 […]
(§4) A431-CCK2R cells in PBS:Matrigel (1:1). […]
(§5) Mice were assigned to imaging and/or biodistribution groups (tumour volumes: 119-327 mm3).
(§6) The respective 68Ga labelled tracer (1.63–3.81 MBq, 170µL, 13.7–14.2 pmoles) containing vehicle solution (75µL, DMSO:Tween 80: water, 2:2:6 v/v/v) was then administered to mice intravenously via tail vein injection. Three mice were euthanized for biodistribution 1 hour post injection (n=3) and selected tissues were excised, weighed, and counted using a Capintec (Captus 4000e) gamma counter. Three mice were anaesthetised using 1.5% isoflurane and imaged at 1 hour (n=3) and 2 hours (n=3) with a G8 Small Animal PET/CT scanner (Perkin […]
(§7) Elmer/Sofie Biosciences). A 10 min static PET scan was acquired, followed immediately by a CT scan (Supplementary Data, pS51–S55). PET images were acquired using the G8 acquisition engine software and reconstructed using a 3D maximal likelihood and expectation maximization (ML-EM) algorithm. PET images were analysed using VivoQuant software, version 3.0 (inviCRO Imaging Services and Software) to quantify maximum standardised uptake value in regions of interest (SUVmax). Background regions for imaging experiments were calculated by quantitating mean standardised uptake value (SUVmean) of the abdomen and gut region. The region of interest was selected due to low uptake in abdomen/gut during imaging. After imaging the 2-hour time point, mice organs were harvested for biodistribution […]
(§8) For blocking CCK2R binding a solution of N-[(3R)-2,3-Dihydro-1-[2-(2-methylphenyl)-2-oxoethyl]-2-oxo-5-phenyl-1H-1,4-benzodiazepin-3-yl]-N′-(3-methylphenyl)-urea (YM022; Sigma Aldrich) was used. YM022 (75µL of a 1 mg/ml solution constituting DMSO:Tween 80: water, 2:2:6 v/v/v) was added to the respective 68Ga labelled tracer (1.41–3.61 MBq, 100 µL, 13.7–14.2 pmoles) and this mixture ([…]) was administered in three mice intravenously via tail vein injection and organs harvested at 1 hour post injection for biodistribution analysis, as above.
(§9) All animal experiments were performed with the approval of the Peter MacCallum Cancer Centre Animal Experimentation Ethics Committee and in accordance with the Australian code for the care and use of animals for scientific purposes, 8th Edition, 2013 (AEEC Approval

Another data set can be described thus: in vivo. Particulars: female, NSG, mouse, iv, total radioactivity. The procedure:
as §1, §2, §3, §4, §5, §6, §7, §8, §9

Read-outs that look alike come from different tables or passages of the source. Where a SMILES comes first, the peptide text is derived from it. [ ]: non-standard residue; d: D form. The star is where a group is joined. DOTA = O=C(O)CN1CCN(CC(=O)O)CCN(CC(=O)*)CCN(CC(=O)O)CC1; NMe1Nal = CN[C@@H](Cc1cccc2ccccc12)C(=O)O; 1Nal = N[C@@H](Cc1cccc2ccccc12)C(=O)O; NMeNle = CCCC[C@H](NC)C(=O)O; Sar = CNCC(=O)O

`CCCC[C@@H](C(=O)N[C@@H](CC(=O)O)C(=O)N[C@@H](Cc1cccc2ccccc12)C(N)=O)N(C)C(=O)[C@H](Cc1c[nH]c2ccccc12)NC(=O)CN(C)C(=O)[C@H](Cc1ccc(O)cc1)NC(=O)[C@H](C)NC(=O)[C@@H](CCC(=O)O)NC(=O)[C@@H](CCC(=O)O)NC(=O)[C@@H](CCC(=O)O)NC(=O)[C@@H](CCC(=O)O)NC(=O)[C@@H](CCC(=O)O)NC(=O)[C@H](N)CCC(=O)O` [GA1, [D-Glu]6-Ala-Tyr-NMeGly-Trp-NMeNle-Asp-Nal-NH2] (H-[dE][dE][dE][dE][dE][dE]AY[Sar]W[NMeNle]D[1Nal]-NH2): in the data set with CCK2R (previously investigated), the “affinity to the CCK2R target” value is “sub-nanomolar”. The IC50 in the data set with CCK2R (previously shown, Ga-DOTA-GA1 form, read-out: binding affinity (IC50) against CCK2R) was 0.05 nM. In addition, the “fold decrease in affinity for CCK2R without gallium coordinated DOTA at the N-terminus” value on human CCK2R was 5 fold.

As for `CCCC[C@@H](C(=O)N[C@@H](CC(=O)O)C(=O)N(C)[C@@H](Cc1cccc2ccccc12)C(N)=O)N(C)C(=O)[C@H](Cc1c[nH]c2ccccc12)NC(=O)CN(C)C(=O)[C@H](Cc1ccc(O)cc1)NC(=O)[C@H](C)NC(=O)[C@@H](CCC(=O)O)NC(=O)[C@@H](CCC(=O)O)NC(=O)[C@@H](CCC(=O)O)NC(=O)[C@@H](CCC(=O)O)NC(=O)[C@@H](CCC(=O)O)NC(=O)[C@@H](CCC(=O)O)NC(=O)CN1CCN(CC(=O)O)CCN(CC(=O)O)CCN(CC(=O)O)CC1` [[^68Ga]Ga-DOTA-GA4, metal not drawn] ({DOTA}-[dE][dE][dE][dE][dE][dE]AY[Sar]W[NMeNle]D[NMe1Nal]-NH2), the “metabolites in kidney homogenates” value in data set [1] is “no observable metabolites detected”. In addition, in data set [1], the “metabolites in liver homogenates” value is “no observable metabolites detected”. For the same molecule, the logD in data set [2] is -2.97 ± 0.13. Moreover, in the data set with AR42J xenografts, the Tumor uptake is listed as 31.1 ± 5.3 % ID/g. The tissue uptake at 1 h in data set [3] (3 mg/kg, Uptake in A431-CCK2R Tumors, 1 hr Blocked) was determined as 2.05 ± 0.14 %ID/g; in data set [3] (Uptake in A431-CCK2R Tumors, 1 hr) it was 8.77 ± 1.21 %ID/g; in data set [3] (Uptake in Organs: Blood) it was 0.92 ± 0.05 %ID/g; in data set [3] (Uptake in Organs: Heart), 0.45 ± 0.03 %ID/g; in data set [3] (Uptake in Organs: Kidneys), 20.3 ± 0.89 %ID/g; in data set [3] (Uptake in Organs: Liver), 0.51 ± 0.01 %ID/g. In addition, the tissue uptake at 1 h in data set [3] (Uptake in Organs: Lungs) turned out to be 0.92 ± 0.04 %ID/g; in data set [3] (Uptake in Organs: Muscle), 0.14 ± 0.01 %ID/g; in data set [3] (Uptake in Organs: Spleen) it was 0.62 ± 0.14 %ID/g; in data set [3] (Uptake in Organs: Stomach), 2.37 ± 0.12 %ID/g. In data set [3] (Uptake in A431-CCK2R Tumors, 2.5 hr), this molecule showed a tissue uptake at 2.5 h of 7.54 ± 0.5 %ID/g. For the same molecule, the tissue to tissue ratio at 1 h in the data set “in vivo” is 11.4 ± 0.9. Besides, the SUV at 2 h in the data set “in vivo” (SUVmax) came to 0.38 SUV.

As usually defined, the IC50 is the concentration that gives 50% inhibition. One may read the logD as lipophilicity at a set pH, counting ionised and neutral species. Low values mean a more hydrophilic compound, high ones a more lipophilic compound. The tissue uptake is the percentage of the injected dose found per gram of tissue. A high value points to high uptake.
